In publication PMC6054100, “Exploring the chemical space of the lysine-binding pocket of the first kringle domain of hepatocyte growth factor/scatter factor (HGF/SF) yields a new class of inhibitors of HGF/SF-MET binding” (Chemical Science, 2015):

The compounds below were run against T1, NK1 (Homo sapiens, UniProt P14210) (assay: SPR steady-state binding to immobilized NK1 (Biacore T100)). Details: steady-state binding constant from SPR (ESI Tables S3-S7); read-out: KD.
Parameters: made in house; host or cells: Pichia pastoris
Protocol: Binding constants of piperazine-like compounds and fragments were determined using a Biacore T100 instrument. NK1 was immobilized on a CM5 chip by amine coupling to a density of 6000 RU. Compounds were stored as 100 mM stock solutions in water and serial dilutions were prepared in the running buffer (PBS pH 7.4, 0.05% Tween 20). The compound solutions were injected onto the surface of the chip at a flow rate of 30 μL min^–1, contact time was 1 min and dissociation time 1 min. Sensorgrams were analysed using the Biacore T100 evaluation software and the binding constants determined.

T1 sequence (P14210 32-210 isoform P14210-6 limits assumed): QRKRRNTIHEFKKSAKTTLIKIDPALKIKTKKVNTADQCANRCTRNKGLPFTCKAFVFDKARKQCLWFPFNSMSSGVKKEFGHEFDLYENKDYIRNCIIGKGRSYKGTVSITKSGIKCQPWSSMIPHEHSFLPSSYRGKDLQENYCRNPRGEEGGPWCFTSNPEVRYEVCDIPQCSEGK

| Structure (SMILES) | Kd [µM] |
| --- | --- |
| CC(=O)Nc1ccccc1F [MB1267] | 1600 |
| Cc1cccc(CN)c1C [MB1274] | 1600 |
| CNCc1cccnc1 [MB1290] | 1640 |
| Nc1ccc(OC(F)F)cc1 [MB1293] | 5000 |
| Cc1cc(C)on1 [MB1299] | 2200 |
| Cc1ccc(C(=O)O)cc1Cl [MB1306] | 2500 |

Same assay, conditions: steady-state binding constant from SPR; fragment hits (Table 3, text)

| Structure (SMILES) | KD |
| --- | --- |
| Cc1cccc(C)c1C#N [MB1283] | lowest affinity |

These compounds were tested against T1, NK1 (assay: SPR fragment library screening against NK1). Details: based on fragment screening; rank among the 71 NK1 hits (ESI Tables S3-S7).
Format: binding
Parameters: made in house; host or cells: Pichia pastoris
Protocol: Supplementary Materials and Methods
Fragment library screening and data analysis
Met567 (soluble truncated f ragment of the MET ectodomain, residues 25- 567), NK1 and t he SPH domain were immobilized on CM5 chips by amine coupling. NK1 was diluted into 10 m M phosphate pH 7.0 and the SPH domain into 10 mM acetate pH 5.5 to a final concentration of 2.5 μM and 1 μM, respectively, for coupling. The immobilization wizard within the Biacore T100 software was set to “aim for immobiliz ed level” of 8000 RU to achieve complete saturation of the chip surface.
W ith minor deviations, the procedure and conditions outlined below were used f or a ll screening s of an in-house fragment library of 1338 members against individual target proteins. The running buffer was PBS pH 7.4, 0.05% Tween 20, 0.25% DMSO (1% DMSO for Met567). Fragments were stored as 100 mM stock solutions in DMSO. Prior to screening, fragment samples were diluted to 500 μM (1 mM f or Met567) in running buffer.
Screening was performed in 96- we ll plates at a flow rate of 30 μl min-1 with 1 min sample injection f ollowed by dissociation f or 1 min and surf ace regeneration using 1 M NaCl f or 30 […]
post-regeneration baseline exceeded the pre- sample baseline by more than 10 RU, a second regeneration cycle with 50% ethylene glycol was used. In order to be able to correct for small variations in DMSO concentration between samples, eight solvent samples ranging from 0.012 to 1.5% DMSO were injected every 40th cycle. To monitor the binding capacity of the NK1, SPH and Met567 surfaces throughout the screening, injections of 500 μM HEPES (NK1), 0.25 μM Met567 (SPH) and 0.2 μM NK1 and 1% DMSO (Met567) were carried out every 40th cycle. The flow cell temperature was 25°C. NK1 and the SPH domain were immobilized on the same chip (channels 2 and 3 respectively) and were theref ore screened in parallel. Met567 was screened separately and results are published in an accompanying paper (W in t er et al. 2015, in revision).
For data analysis, fir st, all responses were reference and solvent corrected. 1 Next, equilibrium binding for every fragment was determined and hits established by applying several filters: sensorgram shape, upper and lower threshold. Typical sensorgrams from fragment screening show “square curves” in SPR due to the fast on and off rates and fragments not showing this response were discarded from further analysis. Binding levels are represented as response units (RU) but the SPR signal is a convolution of multiple parameters including target coupling density, target -binding activity, target molecular weight and molecular weight of each injected fragment. To be able to identif y hits accurately and to be able to compare responses between different plates and targets, data were normalised against these factors. First the theoretical maximum response for each fragment was calculated using equation 1:
RRmmm = CCCCCCCC ddCdCdd× MMffmCmdCd (Equation 1)
This RUmax value diff ers for each protein target because it depends on the molecular weight of the protein and the amount of protein immobilized on the chip (coupling density). The RUmax was then used to calculate the normalised relative SPR response:
NNNNNNNNNN NNNNr NrN SSR NNNrNrNN = RRcppppcppc× 100% (Equation 2) […]
fragment should cause upon binding. 100% response would be 1:1 binding wit h levels above 100% implying over-stoichiometric binding. […]
Fragment library screening to identify small molecule binders

| Structure (SMILES) | Ranking order |
| --- | --- |
| CC(=O)Nc1ccccc1F [MB1267] | 16 |
| Cc1cccc(CN)c1C [MB1274] | 7 |
| Cc1cccc(C)c1C#N [MB1283] | 13 |
| CNCc1cccnc1 [MB1290] | 9 |
| Nc1ccc(OC(F)F)cc1 [MB1293] | 22 |
| Cc1cc(C)on1 [MB1299] | 2 |
| Cc1ccc(C(=O)O)cc1Cl [MB1306] | 21 |

Same assay, conditions: normalised relative value against NK1; fragments 500 μM (ESI Tables S3-S7)

| Structure (SMILES) | SPR response [%] |
| --- | --- |
| CC(=O)Nc1ccccc1F [MB1267] | 90 |
| Cc1cccc(CN)c1C [MB1274] | 105 |
| Cc1cccc(C)c1C#N [MB1283] | 94 |
| CNCc1cccnc1 [MB1290] | 102 |
| Nc1ccc(OC(F)F)cc1 [MB1293] | 72 |
| Cc1cc(C)on1 [MB1299] | 131 |
| Cc1ccc(C(=O)O)cc1Cl [MB1306] | 77 |
